Laboratory results reported in patent publication US9687479B2, “Multisubstituted aromatic compounds as serine protease inhibitors” (VERSEON CORPORATION, priority 2013, dated 2017).

Target: Human thrombin (Homo sapiens (Human), UniProt P00734)
Assay: Thrombin protease activity inhibition assay (chromogenic substrate S-2238)
Type: biochemical
Conditions: 3 nM thrombin, 125 μM S-2238, 10 min pre-incubation, RT
Method: The thrombin activity reported herein (e.g., Table A) was obtained as follows. […] Thrombin was assayed in buffer containing 0.05 M Tris (pH 7.4), 0.015 M NaCl and 0.01% PEG-8000. The final concentration of enzyme used was 3 nM thrombin. […] All assays were performed in 96-well microtiter plates at room temperature (RT). […] Inhibitor IC50 values were determined by adding test compound as ten point, three-fold serial dilutions in buffer solution, as known in the art. The plate was read at 10 minutes after substrate addition. The IC50 was calculated by plotting the percent (%) inhibition against compound concentration and fitting the data to a constrained four parameter sigmoidal curve, as known in the art.

SMILES	IC50
COc1ccccc1C(=O)n1nc(-c2cccn(CC(=O)OC(C)(C)C)c2=O)cc1NCc1ccc(Cl)s1 [Cmpd 262, tert-butyl 2-[3-(5-[(5-chlorothiophen-2-yl)methyl]amino-1-[(2-methoxyphenyl)carbonyl]-1H-pyrazol-3-yl)-2-oxo-1,2-dihydropyridin-1-yl]acetate]	< 0.1 µM
COc1ccc(C(=O)n2nc(-c3cccn(Cc4ccncc4)c3=O)cc2NCc2ccc(Cl)s2)c(OC)c1 [Cmpd 127, 3-(5-[(5-chlorothiophen-2-yl)methyl]amino-1-[(2,4-dimethoxyphenyl)carbonyl]-1H-pyrazol-3-yl)-1-(pyridin-4-ylmethyl)-1,2-dihydropyridin-2-one]	< 0.1 µM
O=C(c1ccc(N2CCOCC2)cc1)n1nc(-c2cccn(Cc3ccsc3)c2=O)cc1NCc1ccc(Cl)s1 [Cmpd 217, 3-(5-[(5-chlorothiophen-2-yl)methyl]amino-1-[4-(morpholin-4-yl)phenyl]carbonyl-1H-pyrazol-3-yl)-1-(thiophen-3-ylmethyl)-1,2-dihydropyridin-2-one]	< 0.1 µM
COc1ccccc1C(=O)n1nc(-c2cccn(Cc3ncccn3)c2=O)cc1NCc1ccc(Cl)s1 [Cmpd 142, 3-(5-[(5-chlorothiophen-2-yl)methyl]amino-1-[(2-methoxyphenyl)carbonyl]-1H-pyrazol-3-yl)-1-(pyrimidin-2-ylmethyl)-1,2-dihydropyridin-2-one]	< 0.1 µM
O=C(c1ccco1)n1nc(-c2cccn(Cc3ccco3)c2=O)cc1NCc1ccc(Cl)s1 [Cmpd 161, 3-(5-[(5-chlorothiophen-2-yl)methyl]amino-1-[(furan-2-yl)carbonyl]-1H-pyrazol-3-yl)-1-(furan-2-ylmethyl)-1,2-dihydropyridin-2-one]	< 0.1 µM
Cn1cccc(-c2cc(NCc3ccc(Cl)s3)n(C(=O)C(C)(C)C)n2)c1=O [Cmpd 90, 3-(5-[(5-chlorothiophen-2-yl)methyl]amino-1-(2,2-dimethylpropanoyl)-1H-pyrazol-3-yl)-1-methyl-1,2-dihydropyridin-2-one]	< 0.1 µM
O=C(c1ccccc1Cl)n1nc(-c2cccn(Cc3ccccc3)c2=O)cc1NCc1ccc(Cl)s1 [Cmpd 55, 1-benzyl-3-1-[(2-chlorophenyl)carbonyl]-5-[(5-chlorothiophen-2-yl)methyl]amino-1H-pyrazol-3-yl-1,2-dihydropyridin-2-one]	< 0.1 µM
O=C(c1ccccc1Cl)n1nc(-c2cccn(Cc3ncccn3)c2=O)cc1NCc1ccc(Cl)s1 [Cmpd 249, 3-1-[(2-chlorophenyl)carbonyl]-5-[(5-chlorothiophen-2-yl)methyl]amino-1H-pyrazol-3-yl-1-(pyrimidin-2-ylmethyl)-1,2-dihydropyridin-2-one]	< 0.1 µM
O=C(c1ccco1)n1nc(-c2cccn(Cc3cccnn3)c2=O)cc1NCc1ccc(Cl)s1 [Cmpd 163, 3-(5-[(5-chlorothiophen-2-yl)methyl]amino-1-[(furan-2-yl)carbonyl]-1H-pyrazol-3-yl)-1-(pyridazin-3-ylmethyl)-1,2-dihydropyridin-2-one]	> 100 µM
CC1(C(=O)n2nc(-c3cccn(CCN4CCOCC4)c3=O)cc2NCc2ccc(Cl)s2)CCOCC1 [Cmpd 159, 3-(5-[(5-chlorothiophen-2-yl)methyl]amino-1-[(4-methyloxan-4-yl)carbonyl]-1H-pyrazol-3-yl)-1-[2-(morpholin-4-yl)ethyl]-1,2-dihydropyridin-2-one]	> 100 µM
Nc1cc(-c2ccc[nH]c2=O)nn1C(=O)c1ccco1 [Cmpd 255, 3-5-amino-1-[(furan-2-yl)carbonyl]-1H-pyrazol-3-yl-1,2-dihydropyridin-2-one]	1 to 10 µM
Cn1cccc(-c2cc(NCc3ccc(Cl)s3)n[nH]2)c1=O [Cmpd 236, 3-(5-[(5-chlorothiophen-2-yl)methyl]amino-1H-pyrazol-3-yl)-1-methyl-1,2-dihydropyridin-2-one]	10 to 100 µM
O=C(c1ccoc1)n1nc(-c2cccn(Cc3ccccc3Cl)c2=O)cc1NCc1ccc(Cl)s1 [Cmpd 29, 1-[(2-chlorophenyl)methyl]-3-(5-[(5-chlorothiophen-2-yl)methyl]amino-1-[(furan-3-yl)carbonyl]-1H-pyrazol-3-yl)-1,2-dihydropyridin-2-one]	< 0.1 µM
O=C(c1cccc2c1OCCO2)n1nc(-c2cccn(Cc3cccnn3)c2=O)cc1NCc1ccc(Cl)s1 [Cmpd 112, 3-(5-[(5-chlorothiophen-2-yl)methyl]amino-1-[(2,3-dihydro-1,4-benzodioxin-5-yl)carbonyl]-1H-pyrazol-3-yl)-1-(pyridazin-3-ylmethyl)-1,2-dihydropyridin-2-one]	< 0.1 µM
O=C(c1cccs1)n1nc(-c2cccn(Cc3ccccn3)c2=O)cc1NCc1ccc(Cl)s1 [Cmpd 186, 3-(5-[(5-chlorothiophen-2-yl)methyl]amino-1-[(thiophen-2-yl)carbonyl]-1H-pyrazol-3-yl)-1-(pyridin-2-ylmethyl)-1,2-dihydropyridin-2-one]	< 0.1 µM
O=C(c1ccoc1)n1nc(-c2cccn(Cc3cccc4ccccc34)c2=O)cc1NCc1ccc(Cl)s1 [Cmpd 174, 3-(5-[(5-chlorothiophen-2-yl)methyl]amino-1-[(furan-3-yl)carbonyl]-1H-pyrazol-3-yl)-1-(naphthalen-1-ylmethyl)-1,2-dihydropyridin-2-one]	< 0.1 µM
O=c1c(-c2cc(NCc3ccc(Cl)s3)[nH]n2)cccn1CCN1CCOCC1 [Cmpd 234, 3-(5-[(5-chlorothiophen-2-yl)methyl]amino-1H-pyrazol-3-yl)-1-[2-(morpholin-4-yl)ethyl]-1,2-dihydropyridin-2-one]	10 to 100 µM
CC(C)(C)C(=O)n1nc(-c2cccn(Cc3ccccc3)c2=O)cc1NCc1ccc(Cl)s1 [Cmpd 43, 1-benzyl-3-(5-[(5-chlorothiophen-2-yl)methyl]amino-1-(2,2-dimethylpropanoyl)-1H-pyrazol-3-yl)-1,2-dihydropyridin-2-one]	< 0.1 µM
O=C(c1cccs1)n1nc(-c2cccn(CCN3CCOCC3)c2=O)cc1NCc1ccc(Cl)s1 [Cmpd 192, 3-(5-[(5-chlorothiophen-2-yl)methyl]amino-1-[(thiophen-2-yl)carbonyl]-1H-pyrazol-3-yl)-1-[2-(morpholin-4-yl)ethyl]-1,2-dihydropyridin-2-one]	> 100 µM
O=c1c(-c2cc(NCc3ccc(Cl)s3)[nH]n2)cccn1Cc1ccc(Cl)cc1 [Cmpd 38, 1-[(4-chlorophenyl)methyl]-3-(5-[(5-chlorothiophen-2-yl)methyl]amino-1H-pyrazol-3-yl)-1,2-dihydropyridin-2-one]	> 100 µM
O=C(c1cccs1)n1nc(-c2cccn(Cc3cccnc3)c2=O)cc1NCc1ccc(Cl)s1 [Cmpd 187, 3-(5-[(5-chlorothiophen-2-yl)methyl]amino-1-[(thiophen-2-yl)carbonyl]-1H-pyrazol-3-yl)-1-(pyridin-3-ylmethyl)-1,2-dihydropyridin-2-one]	< 0.1 µM
CC(C)(C)C(=O)n1nc(-c2cccn(Cc3ncccn3)c2=O)cc1NCc1ccc(Cl)s1 [Cmpd 85, 3-(5-[(5-chlorothiophen-2-yl)methyl]amino-1-(2,2-dimethylpropanoyl)-1H-pyrazol-3-yl)-1-(pyrimidin-2-ylmethyl)-1,2-dihydropyridin-2-one]	< 0.1 µM
O=C(c1cccs1)n1nc(-c2cccn(Cc3ccsc3)c2=O)cc1NCc1ccc(Cl)s1 [Cmpd 191, 3-(5-[(5-chlorothiophen-2-yl)methyl]amino-1-[(thiophen-2-yl)carbonyl]-1H-pyrazol-3-yl)-1-(thiophen-3-ylmethyl)-1,2-dihydropyridin-2-one]	< 0.1 µM
CC(C)(C)C(=O)n1nc(-c2cccn(Cc3ccc(Cl)s3)c2=O)cc1NCc1ccc(Cl)s1 [Cmpd 39, 1-[(5-chlorothiophen-2-yl)methyl]-3-(5-[(5-chlorothiophen-2-yl)methyl]amino-1-(2,2-dimethylpropanoyl)-1H-pyrazol-3-yl)-1,2-dihydropyridin-2-one]	< 0.1 µM
Nc1ccccc1C(=O)n1nc(-c2ccc[nH]c2=O)cc1NCc1ccc(Cl)s1 [Cmpd 241, 3-1-[(2-aminophenyl)carbonyl]-5-[(5-chlorothiophen-2-yl)methyl]amino-1H-pyrazol-3-yl-1,2-dihydropyridin-2-one]	< 0.1 µM
CC1(C(=O)n2nc(-c3cccn(Cc4ccoc4)c3=O)cc2NCc2ccc(Cl)s2)CCOCC1 [Cmpd 151, 3-(5-[(5-chlorothiophen-2-yl)methyl]amino-1-[(4-methyloxan-4-yl)carbonyl]-1H-pyrazol-3-yl)-1-(furan-3-ylmethyl)-1,2-dihydropyridin-2-one]	< 0.1 µM
COCCn1cccc(-c2cc(NCc3ccc(Cl)s3)n(C(=O)c3ccccc3OC)n2)c1=O [Cmpd 133, 3-(5-[(5-chlorothiophen-2-yl)methyl]amino-1-[(2-methoxyphenyl)carbonyl]-1H-pyrazol-3-yl)-1-(2-methoxyethyl)-1,2-dihydropyridin-2-one]	< 0.1 µM
O=C(c1ccccc1N1CCOCC1)n1nc(-c2ccc[nH]c2=O)cc1NCc1ccc(Cl)s1 [Cmpd 205, 3-(5-[(5-chlorothiophen-2-yl)methyl]amino-1-[2-(morpholin-4-yl)phenyl]carbonyl-1H-pyrazol-3-yl)-1,2-dihydropyridin-2-one]	1 to 10 µM
O=C(c1ccccc1)n1nc(-c2cccn(Cc3ccccc3)c2=O)cc1NCc1ccc(Cl)s1 [Cmpd 72, 3-(1-benzoyl-5-[(5-chlorothiophen-2-yl)methyl]amino-1H-pyrazol-3-yl)-1-benzyl-1,2-dihydropyridin-2-one]	< 0.1 µM
O=c1c(-c2cc(NCc3ccc(Cl)s3)[nH]n2)cccn1Cc1ccsc1 [Cmpd 232, 3-(5-[(5-chlorothiophen-2-yl)methyl]amino-1H-pyrazol-3-yl)-1-(thiophen-3-ylmethyl)-1,2-dihydropyridin-2-one]	1 to 10 µM
